The results in this text go back to patent US20230091047A1 (priority 2019, published 2023).

One series is described as follows: in vitro. The format is cell-based. Conditions: human, HepG2 or HepG2.117 cells, ATPlite, mean value; for CC50 at 4 days: 4-days incubation (values marked with *). As for the experimental part: Cytotoxicity of the compounds was tested using HepG2 or HepG2.117 cells, incubated for 3 or 4 days in the presence of compounds. The viability of the cells was assessed using the PERKIN ELMER ATPlite Luminescence Assay System.”
Background: ATP-based viability assays read luminescence as a measure of living cells.

The test system of series [1] is HBV (HepG2.117 cell line, inducibly HBV producing). In words: Anti-HBV activity: intracellular HBV DNA by real-time PCR in HepG2.117 cells after 3 days of treatment. The format is cell-based, hepatitis B virus. On the procedure:
The anti HBV activity was measured using the HepG2.117 cell line, a stable, inducibly HBV producing cell line, which replicates HBV in the absence of doxycycline (Tet-off system). The HepG2 cell line is available from ATCCR under number HB-8065. Transfection of the HepG2 cell line can be as described in Sun and Nassal 2006 Journal of Hepatology 45 (2006) 636-645 “Stable HepG2- and Huh7-based human hepatoma cell lines for efficient regulated expression of infectious hepatitis B virus”.
For the antiviral assay, HBV replication was induced, followed by a treatment with serially diluted compound in 96-well plates. After 3 days of treatment, the antiviral activity was determined by quantification of intracellular HBV DNA using real-time PCR and an HBV specific primer set and probe.
(In general: Real-time PCR tracks product formation cycle by cycle.)

The mark [2] stands for this setting: 3-days incubation (unmarked values).
Where [3] appears, read: Hepatitis B virus, HepG2.117, 72 h, HepG2.117 cells, 3 days of treatment, intracellular HBV DNA by real-time PCR; mean value; read-out: EC50 (μM, mean value).
[4] abbreviates: 3-days incubation (not marked with *).
[5] abbreviates: Hepatitis B virus, HepG2.117, 72 h, HepG2.117 cells, intracellular HBV DNA by real-time PCR, 3 days of treatment, mean value; read-out: EC50 (μM, mean value).

Where two headings read alike, the source gives them in different places. A value given as a limit tells only on which side of the number the result lay.

One may read the CC50 as the concentration at which the toxic effect on the cells reaches its halfway point. Broadly, the EC50 is the concentration needed to bring the measured effect to its halfway point. Consider `CNC(=O)[C@H]1CC[C@H](n2c(NC(C)C)nc3c(c2=O)C[C@@H](C)N(C(=O)c2ccc(Cl)c(Cl)c2)C3)CC1` [Compound C255, trans-4-[(6R)-7-(3,4-dichlorobenzoyl)-6-methyl-4-oxo-2-[(propan-2-yl)amino]-5,6,7,8-tetrahydropyrido[3,4-d]pyrimidin-3(4H)-yl]-N-methylcyclohexane-1-carboxamide], for which, in “in vitro” (setting [2]), the CC50 at 3 days is greater than 50 µM. Moreover, the EC50 in series [1] (setting [3]) worked out at 0.09 µM.
In “in vitro” (setting [4]), `CNC(=O)c1ccc(-n2c(N[C@@H]3CCC34CCC4)nc3c(c2=O)C[C@@H](C)N(C(=O)c2ccc(Cl)c(Cl)c2)C3)cc1` (single isomer, unassigned) [Compound C346a] registered a CC50 at 3 days of 27.6 µM. In series [1] (setting [5]), the concentration for a half-maximal effect (EC50) worked out at 0.94 µM.
On the same counts, the results for `CNC(=O)c1ccc(-n2c(Nc3ccnn3C)nc3c(c2=O)C[C@@H](C)N(C(=O)c2ccc(Cl)c(Cl)c2)C3)cc1` [Compound C389] are greater than 50 µM and greater than 10 µM.
With `CC(C)Nc1nc2c(c(=O)n1-c1ccc(S(C)(=O)=O)cc1)CC(C)N(C(=O)c1ccc(Cl)c(Cl)c1)C2` (stereo not shown) [Compound C100, 7-(3,4-dichlorobenzoyl)-3-[4-(methanesulfonyl)phenyl]-6-methyl-2-[(propan-2-yl)amino]-5,6,7,8-tetrahydropyrido[3,4-d]pyrimidin-4(3H)-one], in the series “in vitro” (setting [2]), the CC50 at 3 days is greater than 25 µM. In series [1] (setting [3]), the EC50 was found to be 0.51 µM.
The matching figures for `COc1ccc(CNc2nc3c(c(=O)n2-c2ccc(S(C)(=O)=O)cc2)C[C@@H](c2ccc(F)cc2)N(C(=O)c2ccc(Cl)c(Cl)c2)C3)cc1` (single isomer, unassigned) [Compound C109A, (6*S)-7-(3,4-dichlorobenzoyl)-6-(4-fluorophenyl)-3-[4-(methanesulfonyl)phenyl]-2-{[(4-methoxyphenyl)methyl]amino}-5,6,7,8-tetrahydropyrido[3,4-d]pyrimidin-4(3H)-one]: greater than 50 µM and greater than 50 µM.
Turning to `CNC(=O)c1ccc(-n2c(N[C@H](C)c3nc[nH]n3)nc3c(c2=O)C[C@@H](C)N(C(=O)c2ccc(Cl)c(Cl)c2)C3)cc1` (single isomer, unassigned) [Compound C439a], the CC50 at 3 days in “in vitro” (setting [4]) was greater than 50 µM. Besides, the EC50 in series [1] (setting [5]) is greater than 10 µM.
As for `CNC(=O)c1ccc(-n2c(NC(C)C)nc3c(c2=O)C[C@@H](C)N(C(=O)c2cc4c(Br)cc(Cl)cc4[nH]2)C3)cc1` [Compound C576], the CC50 at 3 days in the series “in vitro” (setting [4]) is greater than 50 µM. For the same compound, the EC50 in series [1] (setting [5]) amounted to 0.05 µM.
On the same counts, the results for `CNC(=O)c1ccc(-n2c(N[C@H](C)c3ccc(OC(F)(F)F)cc3)nc3c(c2=O)C[C@@H](C)N(C(=O)c2ccc(Cl)c(Cl)c2)C3)cc1` (single isomer, unassigned) [Compound C440a] are 25 µM and 5.42 µM.
Turning to `COc1ccccc1-n1c(NCCc2ccccc2)nc2c(c1=O)CCN(C(=O)c1ccc(Cl)c(Cl)c1)C2` [Compound C20, 7-(3,4-dichlorobenzoyl)-3-(2-methoxyphenyl)-2-[(2-phenylethyl)amino]-5,6,7,8-tetrahydropyrido[3,4-d]pyrimidin-4(3H)-one], the CC50 at 4 days in “in vitro” amounted to 23.1 µM. Moreover, the EC50 in series [1] (setting [3]) was 8.92 µM.
The matching figures for `COc1cccc(CNc2nc3c(c(=O)n2-c2ccccc2OC)CCN(C(=O)c2ccc(Cl)c(Cl)c2)C3)c1` [Compound C18, 7-(3,4-dichlorobenzoyl)-3-(2-methoxyphenyl)-2-{[(3-methoxyphenyl)methyl]amino}-5,6,7,8-tetrahydropyrido[3,4-d]pyrimidin-4(3H)-one]: greater than 50 µM and 3.27 µM.
For `CNC(=O)c1ccc(-n2c(N[C@H](C)c3ccccn3)nc3c(c2=O)C[C@@H](C)N(C(=O)c2ccc(Cl)c(Cl)c2)C3)cc1` (single isomer, unassigned) [Compound C320, 4-[(6R)-7-(3,4-dichlorobenzoyl)-6-methyl-4-oxo-2-{[(1*R)-1-(pyridin-2-yl)ethyl]amino}-5,6,7,8-tetrahydropyrido[3,4-d]pyrimidin-3(4H)-yl]-N-methylbenzamide], the CC50 at 3 days in the series “in vitro” (setting [2]) is greater than 50 µM. In addition, in series [1] (setting [3]), the 50% effective concentration (EC50) came out at 0.27 µM.
The matching figures for `CNC(=O)c1ccc(-n2c(N3CCC[C@@H]3C)nc3c(c2=O)C[C@@H](C)N(C(=O)c2ccc(Cl)c(Cl)c2)C3)cc1` [Compound C271, 4-[(6R)-7-(3,4-dichlorobenzoyl)-6-methyl-2-[(2S)-2-methylpyrrolidin-1-yl]-4-oxo-5,6,7,8-tetrahydropyrido[3,4-d]pyrimidin-3(4H)-yl]-N-methylbenzamide]: 24.9 µM and 0.27 µM.
`CNC(=O)c1ccc(-n2c(NC(C)C)nc3c(c2=O)C[C@@H](C)N(C(=O)c2ccc4cncc(Br)c4c2)C3)cc1` [Compound C491]: the 50% cytotoxic concentration (CC50) at 3 days in the series “in vitro” (setting [4]) was greater than 50 µM. Besides, the half-maximal effective concentration (EC50) in series [1] (setting [5]) came to 15.3 µM.
Take `C[C@@H]1Cc2c(nc(NCc3cscn3)n(-c3ccc(S(C)(=O)=O)cc3)c2=O)CN1C(=O)c1ccc(Cl)c(Cl)c1` [Compound C146, (6R)-7-(3,4-dichlorobenzoyl)-3-[4-(methanesulfonyl)phenyl]-6-methyl-2-{[(1,3-thiazol-4-yl)methyl]amino}-5,6,7,8-tetrahydropyrido[3,4-d]pyrimidin-4(3H)-one]: the CC50 at 3 days in “in vitro” (setting [2]) was greater than 50 µM. Besides, the EC50 in series [1] (setting [3]) came to 1.95 µM.
Compound `CNC(=O)c1ccc(-n2c(NC(C)C)nc3c(c2=O)C[C@@H](C)N(C(=O)c2cc4c(OC(F)(F)F)cccc4[nH]2)C3)cc1` [Compound C587] came in with a CC50 at 3 days in “in vitro” (setting [4]) of 9.2 µM. Besides, the EC50 in series [1] (setting [5]) amounted to 0.09 µM.
As to `CC(C)N(CCO)c1nc2c(c(=O)[nH]1)CCN(C(=O)c1ccc(Cl)c(Cl)c1)C2` [Compound C97, 7-(3,4-dichlorobenzoyl)-2-[(2-hydroxyethyl)(propan-2-yl)amino]-5,6,7,8-tetrahydropyrido[3,4-d]pyrimidin-4(3H)-one], the half-maximal cytotoxic concentration (CC50) at 3 days in “in vitro” (setting [2]) is greater than 50 µM. In addition, the EC50 in series [1] (setting [3]) came to 3.22 µM.
Consider `COc1ccc(CNc2nc3c(c(=O)n2-c2cccc4ocnc24)CCN(C(=O)c2ccc(Cl)c(Cl)c2)C3)cc1` [Compound C148, 3-(1,3-benzoxazol-4-yl)-7-(3,4-dichlorobenzoyl)-2-{[(4-methoxyphenyl)methyl]amino}-5,6,7,8-tetrahydropyrido[3,4-d]pyrimidin-4(3H)-one], for which the CC50 at 3 days in the series “in vitro” (setting [2]) is greater than 38 µM. Moreover, the EC50 in series [1] (setting [3]) is 1.48 µM.
With `CNC(=O)c1cc(-n2c(N[C@@H](C)c3ccc(OC(F)(F)F)cc3)nc3c(c2=O)C[C@@H](C)N(C(=O)c2ccc(Cl)c(Cl)c2)C3)n(C)n1` [Compound C618], the CC50 at 3 days in “in vitro” (setting [4]) is greater than 45 µM. The EC50 in series [1] (setting [5]) was 0.09 µM.
The compound `CNC(=O)c1ccc(-n2c(NC(C)C)nc3c(c2=O)C[C@@H](C)N(C(=O)c2ccc(Cl)c(C(F)(F)F)c2)C3)c(OC)c1` [Compound C643] came in with a CC50 at 3 days in the series “in vitro” (setting [4]) greater than 50 µM. In addition, in series [1] (setting [5]), the EC50 was determined as 0.05 µM.
The matching figures for `CNC(=O)c1ccc(-n2c(N[C@@H](C)c3ccc(C(F)F)cc3)nc3c(c2=O)C[C@@H](C)N(C(=O)c2ccc(Cl)c(Cl)c2)C3)cc1` [Compound C609]: 18.7 µM and 0.08 µM.
As for `CNC(=O)c1ccc(-n2c(NCC34C5C6C7C5C3C7C64)nc3c(c2=O)C[C@@H](C)N(C(=O)c2ccc(Cl)c(Cl)c2)C3)cc1` (stereo partly shown) [Compound C451], the CC50 at 3 days in the series “in vitro” (setting [4]) was greater than 50 µM. In series [1] (setting [5]), the concentration giving a half-maximal response (EC50) was 0.41 µM.
In turn, `CNC(=O)c1ccc(-n2c(NCc3c[nH]c4ccccc34)nc3c(c2=O)C[C@@H](C)N(C(=O)c2ccc(Cl)c(Cl)c2)C3)cc1` [Compound C277, 4-[(6R)-7-(3,4-dichlorobenzoyl)-2-{[(1H-indol-3-yl)methyl]amino}-6-methyl-4-oxo-5,6,7,8-tetrahydropyrido[3,4-d]pyrimidin-3(4H)-yl]-N-methylbenzamide] gave a CC50 at 3 days in “in vitro” (setting [2]) of 40.1 µM. Further, the concentration for a half-maximal effect (EC50) in series [1] (setting [3]) came out at 1.27 µM.
In the series “in vitro” (setting [2]), `Cc1cc(C(=O)N2CCc3c(nc(NC(C)C)n(-c4ccc(S(C)(=O)=O)cc4)c3=O)C2)ccc1Cl` [Compound C221, 7-(4-chloro-3-methylbenzoyl)-3-[4-(methanesulfonyl)phenyl]-2-[(propan-2-yl)amino]-5,6,7,8-tetrahydropyrido[3,4-d]pyrimidin-4(3H)-one] showed a CC50 at 3 days greater than 50 µM. In addition, the EC50 in series [1] (setting [3]) stood at 1.58 µM.
`CC(C)Nc1nc2c(c(=O)n1-c1ccc(C(=O)NC3CC3)cc1)C[C@@H](C)N(C(=O)c1ccc(Cl)c(C(F)F)c1)C2` [Compound C681]: the CC50 at 3 days in “in vitro” (setting [4]) is greater than 50 µM. In series [1] (setting [5]), the EC50 came out at 0.04 µM.
In “in vitro” (setting [2]), `COCCn1c(NCc2ccccc2)nc2c(c1=O)CCN(C(=O)c1ccc(Cl)c(Cl)c1)C2` [Compound C28, 2-(benzylamino)-7-(3,4-dichlorobenzoyl)-3-(2-methoxyethyl)-5,6,7,8-tetrahydropyrido[3,4-d]pyrimidin-4(3H)-one] displayed a CC50 at 3 days of 25.2 µM. For the same compound, in series [1] (setting [3]), the EC50 worked out at 9.1 µM.
For the compound `CC[C@@H](C)Nc1nc2c(c(=O)n1-c1ccc(C(=O)NC)cc1)C[C@@H](C)N(C(=O)c1ccc(Cl)c(Cl)c1)C2` [Compound C258, 4-[(6R)-2-{[(2R)-butan-2-yl]amino}-7-(3,4-dichlorobenzoyl)-6-methyl-4-oxo-5,6,7,8-tetrahydropyrido[3,4-d]pyrimidin-3(4H)-yl]-N-methylbenzamide], in the series “in vitro” (setting [2]), the CC50 at 3 days is greater than 50 µM. Besides, the EC50 in series [1] (setting [3]) is 0.05 µM.
